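These data come from cells grown in 96-well plates and exposed to compound for 48 hours at five concentrations. The concentration for 50% growth inhibition is given as GI50. TGI: concentration producing complete growth inhibition.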
How the values were obtained:
Assay in all cases: NCI tumour cell line growth inhibition, 48 h
K-562 leukemia = tested on: K-562 leukemia
NCI-H522 lung = tested on: NCI-H522 lung
KM12 colon = tested on: KM12 colon
M14 melanoma = tested on: M14 melanoma
MOLT-4 leukemia = tested on: MOLT-4 leukemia
EKVX NSCLC = tested on: EKVX NSCLC
OVCAR-3 ovarian = tested on: OVCAR-3 ovarian
SNB-19 CNS = tested on: SNB-19 CNS
SK-MEL-5 melanoma = tested on: SK-MEL-5 melanoma
SF-539 CNS = tested on: SF-539 CNS

| Structure (SMILES) | GI50 (K-562 leukemia) [µM] | TGI (K-562 leukemia) [µM] | GI50 (NCI-H522 lung) [µM] | TGI (NCI-H522 lung) [µM] | GI50 (KM12 colon) [µM] | TGI (KM12 colon) [µM] | GI50 (M14 melanoma) [µM] | TGI (M14 melanoma) [µM] | GI50 (MOLT-4 leukemia) [µM] | TGI (MOLT-4 leukemia) [µM] | GI50 (EKVX NSCLC) [µM] | TGI (EKVX NSCLC) [µM] | GI50 (OVCAR-3 ovarian) [µM] | TGI (OVCAR-3 ovarian) [µM] | GI50 (SNB-19 CNS) [µM] | TGI (SNB-19 CNS) [µM] | GI50 (SK-MEL-5 melanoma) [µM] | TGI (SK-MEL-5 melanoma) [µM] | GI50 (SF-539 CNS) [µM] | TGI (SF-539 CNS) [µM] |
| --- | --- | --- | --- | --- | --- | --- | --- | --- | --- | --- | --- | --- | --- | --- | --- | --- | --- | --- | --- | --- |
| C=CCCCCC/C=C\[C@@H](O)C#CC#C/C=C/CO | 18.5 | 37.5 | 26 | 98.7 | 77.5 | > 100 | > 100 | > 100 | 18.3 | 43.8 | > 100 | > 100 | 41.7 | > 100 | > 100 | > 100 | > 100 | > 100 | > 100 | > 100 |
| CCCCC(CC)COC(=O)C[N+](C)(C)CCOC(c1ccccc1)c1ccccc1 (centres undefined) | 3.23 | 11.6 | 1.75 | 3.67 | 1.78 | 3.44 | 1.63 | 3.23 | 2.5 | 6.66 | 3.76 | 15.9 | 1.79 | 3.64 | 1.85 | 3.76 | 1.73 | 3.1 | 2.32 | 5.27 |
| COc1ccc(CN2CC(C)(C)C2=O)c(OC)c1 |  | > 100 |  | > 100 |  | > 100 |  | > 100 |  | > 100 |  | > 100 |  | > 100 |  | > 100 |  | > 100 |  | > 100 |
| CCOC(=O)/C(C)=C(/O)C(=O)OCC |  | > 100 |  | > 100 |  | > 100 |  | > 100 |  | > 100 |  | > 100 |  | > 100 |  | > 100 |  | > 100 |  | > 100 |
| O=C(O)CNS(=O)(=O)c1ccc(NC(=O)c2ccc([N+](=O)[O-])cc2)cc1 |  | > 100 |  | > 100 |  | > 100 |  | > 100 |  | > 100 |  | > 100 |  | > 100 |  | > 100 |  | > 100 |  | > 100 |
| CCCCNC1CCCCC[C@H]1O (some centres undefined) |  | > 100 |  | > 100 |  | > 100 |  | > 100 |  | > 100 |  | > 100 |  | > 100 |  | > 100 |  | > 100 |  | > 100 |
| N#Cc1cc(-c2cc3ccccc3o2)oc1N | 3.58 | > 100 | 2.41 | 12.6 | 3.58 | 11.8 | 6.11 | 22 | 1.94 | 6.64 | 2.83 | 14.1 | 1.98 | 6.38 | 4.07 | 31.7 | 1.52 | 3.78 | 3.89 | 14.5 |
| Cc1nnc(NS(=O)(=O)c2ccc(N=Nc3cc(N=Nc4ccc(S(=O)(=O)Nc5nnc(C)s5)cc4)c4c(NC(=O)C(Cl)Cl)cccc4c3OC(=O)C(Cl)Cl)cc2)s1 (tested in a mixture with another compound) |  | 77.8 |  | 64.7 |  | > 100 |  | 73.4 |  | 33 |  | 89.2 |  | 55.2 |  | > 100 |  | 75.8 |  | 43 |
| Cc1cc(C(=O)Nc2ccc3cc(CN4CCOCC4)ccc3n2)c(C)n1-c1ccccc1 | 1.06 | > 55.3 | 2.67 | 9.38 | 1.68 | 4.66 | 1.81 | 5.71 | 0.812 | 3.29 | 1.38 | > 100 | 1.58 | 6.72 | 17.6 | > 100 | 0.202 | 0.799 | 4.84 | 27.7 |
| COc1ccc2c3c([nH]c2c1[N+](=O)[O-])C(C)N(C)CC3 (centres undefined) |  | 40.1 |  | > 100 |  | > 100 |  | > 100 |  | > 100 |  | > 100 |  | > 100 |  | > 100 |  | > 100 |  | > 100 |
| CCCCCCCCCCCCCCCC(=O)OCC(C[As](=O)(O)O)OC(=O)CCCCCCCCCCCCCCC (centres undefined) |  | > 100 |  | > 100 |  | > 100 |  | > 100 |  | > 100 |  | > 100 |  | > 100 |  | > 100 |  | > 100 |  | > 100 |
| COc1cc(/C=C/c2ccc(OC)c(O)c2)cc(OC)c1 |  | 8.64 |  | 4.49 |  | 28.3 |  | 12.8 |  | 15.7 |  | 90 |  | 4.88 |  | 24.1 |  | 14.4 |  | 8.47 |
| COc1ccc(C(=O)c2cc(C)c(OC)c(C)c2)cc1OC(=O)CCl | < 0.01 | > 100 | < 0.01 | < 0.01 | < 0.01 | > 65.3 | < 0.01 | 22.8 | < 0.0158 | > 100 | 0.0928 | > 100 | < 0.01 | 1.08 | < 0.01 | > 100 | < 0.01 | 0.459 | < 0.01 | < 0.01 |
| O=C(Nc1ccccc1-c1nc2ccccc2[nH]c1=O)c1ccccc1 |  | > 100 |  | 46.1 |  | > 100 |  | > 100 |  | > 100 |  | 70.3 |  | 44 |  | 60.1 |  | > 100 |  | 49.6 |
| C=C(C)CCN[Si](c1ccccc1)(c1ccccc1)C(C)(C)C |  | 63.2 |  | 44.3 |  | 36.3 |  | 34.4 |  | 52.6 |  | 54.4 |  | 32 |  | 49.2 |  | 36.9 |  | 29.1 |
| CC1=[N+]([O-])c2ccccc2C(=O)C1=O |  | > 100 |  | 71.4 |  | > 100 |  | > 100 |  | > 100 |  | > 100 |  | > 100 |  | > 100 |  | > 100 |  | > 100 |
| NC(=O)c1cc(Cl)ccc1NC(=O)/C=C/c1ccccc1 | 0.806 | > 23.1 | 1.81 | 6.42 | 2.19 | > 100 | 2.25 | > 31.5 | 3.44 | > 100 | 2.83 | > 100 | 1.3 | 2.89 | 4.47 | > 55.6 | 0.787 |  | 2.05 | 5.53 |

Reference: PubChem BioAssay (NCI)
